{"source": "patent US10624897B2", "about": "“Chlorobenzene substituted azaaryl compounds” (TAIPEI MEDICAL UNIVERSITY, priority 2015, dated 2020)", "key": {"[1]": {"test_system": "HUVEC", "test": "MTT assay, viability of normal cells", "format": "cell-based, Human", "settings": "72 hours, FIG. 1B", "description": "Cell viability was assessed the MTT assay. […] Data are expressed as means±S.D. (***P<0.001 compares to control group).\nCells were cultured in RPMI-1640 (RT-112, KMS-11, SNU-16, HT-29, HCT-116, NCI—H520, Hep3B, PLC/PRF/5, HL-60, MOLT-4) and DMEM (HepG2, MCF-7, MDA-MB-231) with 10% FBS (v/v) and Penicillin/Streptomycin (100 U/ml). FU-DDLS-1 cell line was maintained in DMEM:F12 medium with 10% FBS. LiSa-2 cell line was maintained in IMDM/RPMI-1640 in a 4:1 ratio supplemented with 10% FBS, 2 mmol/L L-glutamine, and 0.1 mg/mL gentamicin. Human umbilical vein endothelial cells (HUVECs) were grown to confluence on 1% collagen, and maintained in 90% Medium 199 with 25 U/ml heparin, 30 μg/ml endothelial cell growth supplement (ECGS) adjusted to contain 1.5 g/L sodium bicarbonate, 10% FBS and Penicillin/Streptomycin (100 U/ml) Cultures were maintained at 37° C. in a humidified atmosphere of 5% CO2/95% air.\nCells were seeded in 96-well plates (5,000 cells/well) and incubated overnight for attachment, and were then treated with indicated agents in 10% FBS-supplemented medium for 72 hours. […] After removal of medium, the cells were lysed with 100 μL per well dimethyl sulfoxide (DMSO), and absorbance at 550 nm was measured with microplate reader. The relative cell viability (%) was expressed as a percentage relative to a DMSO control cells."}, "[2]": {"biological_target": "T1, FGFR3 (Homo sapiens, UniProt P22607)", "T1 construct": "made in house; host or cells: E. coli BL21-derived host (T7 phage) or HEK-293", "T1 sequence (P22607 23-806)": "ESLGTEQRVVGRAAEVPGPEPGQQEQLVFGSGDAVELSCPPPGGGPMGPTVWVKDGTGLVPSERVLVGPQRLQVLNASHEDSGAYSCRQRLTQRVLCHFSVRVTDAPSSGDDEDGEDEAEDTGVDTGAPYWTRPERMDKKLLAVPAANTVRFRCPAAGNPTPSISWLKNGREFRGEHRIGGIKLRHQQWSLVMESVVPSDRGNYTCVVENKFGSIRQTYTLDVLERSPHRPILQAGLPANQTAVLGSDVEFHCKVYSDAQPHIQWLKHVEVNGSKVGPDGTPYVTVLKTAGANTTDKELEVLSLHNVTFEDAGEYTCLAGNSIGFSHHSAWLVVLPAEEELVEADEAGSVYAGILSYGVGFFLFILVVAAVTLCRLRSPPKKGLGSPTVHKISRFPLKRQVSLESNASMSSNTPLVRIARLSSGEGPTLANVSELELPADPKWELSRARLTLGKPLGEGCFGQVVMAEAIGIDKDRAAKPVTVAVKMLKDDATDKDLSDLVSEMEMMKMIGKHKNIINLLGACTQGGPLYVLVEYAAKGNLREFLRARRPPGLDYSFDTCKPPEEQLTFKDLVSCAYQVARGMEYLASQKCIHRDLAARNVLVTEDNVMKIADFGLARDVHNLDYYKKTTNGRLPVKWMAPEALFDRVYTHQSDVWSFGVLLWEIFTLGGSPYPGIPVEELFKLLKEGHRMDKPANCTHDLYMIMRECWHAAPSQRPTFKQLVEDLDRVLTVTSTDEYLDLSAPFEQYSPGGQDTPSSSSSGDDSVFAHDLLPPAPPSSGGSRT", "test": "Kinase binding assay (Kd)", "settings": "FGFR3 (wild-type)", "description": "(§1) Kinase assays. For most assays, kinase-tagged T7 phage strains were prepared in an E. coli host derived from the BL21 strain. E. coli were grown to log-phase and infected with T7 phage and incubated with shaking at 32° C. until lysis. The lysates were centrifuged and filtered to remove cell debris. The remaining kinases were produced in HEK-293 cells and subsequently tagged with DNA for qPCR detection. […] The liganded beads were blocked with excess biotin and washed with blocking buffer (SeaBlock (Pierce), 1% BSA, 0.05% Tween 20, 1 mM DTT) to remove unbound ligand and to reduce non-specific binding. […] All reactions were performed in polystyrene 96-well plates in a final volume of 0.135 ml. […] The kinase concentration in the eluates was measured by qPCR.\n(§2) An 11-point 3-fold serial dilution of each test compound was prepared in 100% DMSO at 100× final test concentration and subsequently diluted to 1× in the assay (final DMSO concentration=1%). Most Kds were determined using a compound top concentration=30,000 nM.\n(§3) Binding constants (Kds) were calculated with a standard dose-response curve using the Hill equation: […]\n(§4) The Hill Slope was set to −1. Curves were fitted using a non-linear least square fit with the Levenberg-Marquardt algorithm.\n(§5) The compound and assay method are similar to those mentioned in Example 45."}, "[3]": {"biological_target": "T2, AKT2 (Homo sapiens, UniProt P31751)", "T2 construct": "made in house; host or cells: E. coli BL21-derived host (T7 phage) or HEK-293", "test": "Kinase binding assay (Kd)", "description": "as §1, §2, §3, §4"}, "[4]": {"biological_target": "T3, BRAF (Homo sapiens, UniProt P15056)", "T3 construct": "made in house; host or cells: E. coli BL21-derived host (T7 phage) or HEK-293", "test": "Kinase binding assay (Kd)", "description": "as §1, §2, §3, §4"}, "[5]": {"biological_target": "T4, BTK (Homo sapiens, UniProt Q06187)", "T4 construct": "made in house; host or cells: E. coli BL21-derived host (T7 phage) or HEK-293", "test": "Kinase binding assay (Kd)", "description": "as §1, §2, §3, §4"}, "[6]": {"biological_target": "T5, CSF1R (Homo sapiens, UniProt P07333)", "T5 construct": "made in house; host or cells: E. coli BL21-derived host (T7 phage) or HEK-293", "test": "Kinase binding assay (Kd)", "description": "as §1, §2, §3, §4"}, "[7]": {"biological_target": "T6, DCAMKL1 (Homo sapiens, UniProt O15075)", "T6 construct": "made in house; host or cells: E. coli BL21-derived host (T7 phage) or HEK-293", "test": "Kinase binding assay (Kd)", "description": "as §1, §2, §3, §4"}, "[8]": {"biological_target": "T7, ERBB4 (Homo sapiens, UniProt Q15303)", "T7 construct": "made in house; host or cells: E. coli BL21-derived host (T7 phage) for most kinases, HEK-293 for the rest", "T7 sequence (Q15303 26-1308)": "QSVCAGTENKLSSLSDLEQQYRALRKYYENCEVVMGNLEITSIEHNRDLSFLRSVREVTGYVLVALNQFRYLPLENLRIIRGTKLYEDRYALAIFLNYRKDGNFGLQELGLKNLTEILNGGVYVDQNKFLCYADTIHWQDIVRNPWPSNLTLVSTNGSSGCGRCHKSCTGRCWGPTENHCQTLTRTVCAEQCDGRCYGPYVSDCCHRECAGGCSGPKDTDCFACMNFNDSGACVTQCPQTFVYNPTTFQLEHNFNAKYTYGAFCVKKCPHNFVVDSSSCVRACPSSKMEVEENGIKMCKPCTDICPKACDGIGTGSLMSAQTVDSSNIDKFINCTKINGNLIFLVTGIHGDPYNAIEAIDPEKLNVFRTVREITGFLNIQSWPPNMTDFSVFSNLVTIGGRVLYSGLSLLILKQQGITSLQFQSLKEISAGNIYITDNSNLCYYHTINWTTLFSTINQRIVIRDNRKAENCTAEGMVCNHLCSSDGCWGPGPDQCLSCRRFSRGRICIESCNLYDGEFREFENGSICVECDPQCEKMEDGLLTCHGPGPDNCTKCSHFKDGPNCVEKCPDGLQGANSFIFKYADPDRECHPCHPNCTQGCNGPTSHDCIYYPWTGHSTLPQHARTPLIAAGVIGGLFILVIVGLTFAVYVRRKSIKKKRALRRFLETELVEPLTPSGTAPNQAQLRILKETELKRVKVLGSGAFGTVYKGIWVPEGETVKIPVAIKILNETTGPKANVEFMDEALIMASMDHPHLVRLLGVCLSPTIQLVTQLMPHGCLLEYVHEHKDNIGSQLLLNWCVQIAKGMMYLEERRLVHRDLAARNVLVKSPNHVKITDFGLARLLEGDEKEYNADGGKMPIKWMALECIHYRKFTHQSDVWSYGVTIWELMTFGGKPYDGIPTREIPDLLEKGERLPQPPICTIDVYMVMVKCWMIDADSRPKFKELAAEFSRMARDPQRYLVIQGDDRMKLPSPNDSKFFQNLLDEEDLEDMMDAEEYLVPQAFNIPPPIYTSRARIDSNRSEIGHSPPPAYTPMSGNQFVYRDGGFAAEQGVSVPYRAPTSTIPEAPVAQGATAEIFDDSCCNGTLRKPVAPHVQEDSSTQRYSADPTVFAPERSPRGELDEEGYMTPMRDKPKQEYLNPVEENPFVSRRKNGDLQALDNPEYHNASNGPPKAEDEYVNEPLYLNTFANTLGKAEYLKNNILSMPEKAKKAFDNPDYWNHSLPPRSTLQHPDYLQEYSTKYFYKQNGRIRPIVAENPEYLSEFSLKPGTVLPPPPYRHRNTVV", "test": "Kinase binding assay (Kd)", "description": "as §1, §2, §3, §4"}, "[9]": {"biological_target": "T8, FAK (Homo sapiens, UniProt Q05397)", "T8 construct": "made in house; host or cells: E. coli BL21-derived host (T7 phage) for most kinases, HEK-293 for the rest", "test": "Kinase binding assay (Kd)", "description": "as §1, §2, §3, §4"}, "[10]": {"biological_target": "T9, FGFR4 (Homo sapiens, UniProt P22455)", "T9 construct": "made in house; host or cells: E. coli BL21-derived host (T7 phage) or HEK-293", "test": "Kinase binding assay (Kd)", "description": "as §1, §2, §3, §4"}, "[11]": {"biological_target": "T10, FLT3 (Homo sapiens, UniProt P36888)", "T10 construct": "made in house; host or cells: E. coli BL21-derived host (T7 phage) or HEK-293", "test": "Kinase binding assay (Kd)", "description": "as §1, §2, §3, §4"}, "[12]": {"biological_target": "T11, LKB1 (Homo sapiens, UniProt Q15831)", "T11 construct": "made in house; host or cells: E. coli BL21-derived host (T7 phage) for most kinases, HEK-293 for the rest", "test": "Kinase binding assay (Kd)", "description": "as §1, §2, §3, §4"}, "[13]": {"biological_target": "T12, MET (Homo sapiens, UniProt P08581)", "T12 construct": "made in house; host or cells: E. coli BL21-derived host (T7 phage) for most kinases, HEK-293 for the rest", "T12 sequence (P08581 25-1390)": "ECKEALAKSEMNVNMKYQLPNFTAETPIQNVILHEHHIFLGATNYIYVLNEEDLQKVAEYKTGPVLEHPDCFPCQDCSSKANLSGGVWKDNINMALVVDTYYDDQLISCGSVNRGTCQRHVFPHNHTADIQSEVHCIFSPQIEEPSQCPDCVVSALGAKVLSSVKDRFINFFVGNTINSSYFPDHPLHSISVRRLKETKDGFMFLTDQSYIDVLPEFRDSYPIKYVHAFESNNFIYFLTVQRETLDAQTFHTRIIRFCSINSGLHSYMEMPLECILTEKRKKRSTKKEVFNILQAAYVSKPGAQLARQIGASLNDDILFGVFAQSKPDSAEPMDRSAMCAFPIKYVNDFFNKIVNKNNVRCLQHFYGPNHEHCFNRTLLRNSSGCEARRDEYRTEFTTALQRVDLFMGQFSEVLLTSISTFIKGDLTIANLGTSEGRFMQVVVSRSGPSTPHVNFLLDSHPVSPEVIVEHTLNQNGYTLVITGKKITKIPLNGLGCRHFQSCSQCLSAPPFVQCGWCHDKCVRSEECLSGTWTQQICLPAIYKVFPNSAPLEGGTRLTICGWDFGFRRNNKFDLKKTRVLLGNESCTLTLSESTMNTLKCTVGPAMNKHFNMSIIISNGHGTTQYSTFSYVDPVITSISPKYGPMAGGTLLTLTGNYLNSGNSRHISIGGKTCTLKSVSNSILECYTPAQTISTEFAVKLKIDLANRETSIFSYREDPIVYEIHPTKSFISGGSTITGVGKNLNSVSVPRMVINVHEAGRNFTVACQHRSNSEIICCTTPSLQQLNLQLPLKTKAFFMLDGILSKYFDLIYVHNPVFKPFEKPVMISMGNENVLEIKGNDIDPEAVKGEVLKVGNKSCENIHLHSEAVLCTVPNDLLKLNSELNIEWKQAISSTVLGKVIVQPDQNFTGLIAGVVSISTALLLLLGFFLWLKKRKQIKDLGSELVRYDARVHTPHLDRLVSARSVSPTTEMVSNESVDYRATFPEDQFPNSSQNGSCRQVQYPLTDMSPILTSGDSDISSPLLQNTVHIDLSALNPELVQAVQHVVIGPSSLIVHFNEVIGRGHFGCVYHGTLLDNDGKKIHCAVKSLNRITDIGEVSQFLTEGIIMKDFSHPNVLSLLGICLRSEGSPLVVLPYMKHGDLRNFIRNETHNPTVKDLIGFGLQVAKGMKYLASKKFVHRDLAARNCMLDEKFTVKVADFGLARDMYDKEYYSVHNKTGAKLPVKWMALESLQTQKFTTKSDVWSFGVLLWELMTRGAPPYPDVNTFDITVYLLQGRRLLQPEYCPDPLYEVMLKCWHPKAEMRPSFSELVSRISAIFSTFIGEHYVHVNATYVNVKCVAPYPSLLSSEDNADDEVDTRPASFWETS", "test": "Kinase binding assay (Kd)", "description": "as §1, §2, §3, §4"}, "[14]": {"biological_target": "T13, MKNK1 (Homo sapiens, UniProt Q9BUB5)", "T13 construct": "made in house; host or cells: E. coli BL21-derived host (T7 phage) for most kinases, HEK-293 for the rest", "test": "Kinase binding assay (Kd)", "description": "as §1, §2, §3, §4"}, "[15]": {"biological_target": "T14, MKNK2 (Homo sapiens, UniProt Q9HBH9)", "T14 construct": "made in house; host or cells: E. coli BL21-derived host (T7 phage) for most kinases, HEK-293 for the rest", "test": "Kinase binding assay (Kd)", "description": "as §1, §2, §3, §4"}, "[16]": {"biological_target": "T15, PIK3CA (Homo sapiens, UniProt P42336)", "T15 construct": "made in house; host or cells: E. coli BL21-derived host (T7 phage) for most kinases, HEK-293 for the rest", "test": "Kinase binding assay (Kd)", "description": "as §1, §2, §3, §4"}, "[17]": {"biological_target": "T16, PIM1 (Homo sapiens, UniProt P11309)", "T16 construct": "made in house; host or cells: E. coli BL21-derived host (T7 phage) for most kinases, HEK-293 for the rest", "test": "Kinase binding assay (Kd)", "description": "as §1, §2, §3, §4"}, "[18]": {"biological_target": "T17, PLK3 (Homo sapiens, UniProt Q9H4B4)", "T17 construct": "made in house; host or cells: E. coli BL21-derived host (T7 phage) or HEK-293", "test": "Kinase binding assay (Kd)", "description": "as §1, §2, §3, §4"}, "[19]": {"biological_target": "T18, RAF1 (Homo sapiens, UniProt P04049)", "T18 construct": "made in house; host or cells: E. coli BL21-derived host (T7 phage) or HEK-293", "test": "Kinase binding assay (Kd)", "description": "as §1, §2, §3, §4"}, "[20]": {"biological_target": "T19, VEGFR2 (Homo sapiens, UniProt P35968)", "T19 construct": "made in house; host or cells: E. coli BL21-derived host (T7 phage) or HEK-293", "T19 sequence (P35968 20-1356)": "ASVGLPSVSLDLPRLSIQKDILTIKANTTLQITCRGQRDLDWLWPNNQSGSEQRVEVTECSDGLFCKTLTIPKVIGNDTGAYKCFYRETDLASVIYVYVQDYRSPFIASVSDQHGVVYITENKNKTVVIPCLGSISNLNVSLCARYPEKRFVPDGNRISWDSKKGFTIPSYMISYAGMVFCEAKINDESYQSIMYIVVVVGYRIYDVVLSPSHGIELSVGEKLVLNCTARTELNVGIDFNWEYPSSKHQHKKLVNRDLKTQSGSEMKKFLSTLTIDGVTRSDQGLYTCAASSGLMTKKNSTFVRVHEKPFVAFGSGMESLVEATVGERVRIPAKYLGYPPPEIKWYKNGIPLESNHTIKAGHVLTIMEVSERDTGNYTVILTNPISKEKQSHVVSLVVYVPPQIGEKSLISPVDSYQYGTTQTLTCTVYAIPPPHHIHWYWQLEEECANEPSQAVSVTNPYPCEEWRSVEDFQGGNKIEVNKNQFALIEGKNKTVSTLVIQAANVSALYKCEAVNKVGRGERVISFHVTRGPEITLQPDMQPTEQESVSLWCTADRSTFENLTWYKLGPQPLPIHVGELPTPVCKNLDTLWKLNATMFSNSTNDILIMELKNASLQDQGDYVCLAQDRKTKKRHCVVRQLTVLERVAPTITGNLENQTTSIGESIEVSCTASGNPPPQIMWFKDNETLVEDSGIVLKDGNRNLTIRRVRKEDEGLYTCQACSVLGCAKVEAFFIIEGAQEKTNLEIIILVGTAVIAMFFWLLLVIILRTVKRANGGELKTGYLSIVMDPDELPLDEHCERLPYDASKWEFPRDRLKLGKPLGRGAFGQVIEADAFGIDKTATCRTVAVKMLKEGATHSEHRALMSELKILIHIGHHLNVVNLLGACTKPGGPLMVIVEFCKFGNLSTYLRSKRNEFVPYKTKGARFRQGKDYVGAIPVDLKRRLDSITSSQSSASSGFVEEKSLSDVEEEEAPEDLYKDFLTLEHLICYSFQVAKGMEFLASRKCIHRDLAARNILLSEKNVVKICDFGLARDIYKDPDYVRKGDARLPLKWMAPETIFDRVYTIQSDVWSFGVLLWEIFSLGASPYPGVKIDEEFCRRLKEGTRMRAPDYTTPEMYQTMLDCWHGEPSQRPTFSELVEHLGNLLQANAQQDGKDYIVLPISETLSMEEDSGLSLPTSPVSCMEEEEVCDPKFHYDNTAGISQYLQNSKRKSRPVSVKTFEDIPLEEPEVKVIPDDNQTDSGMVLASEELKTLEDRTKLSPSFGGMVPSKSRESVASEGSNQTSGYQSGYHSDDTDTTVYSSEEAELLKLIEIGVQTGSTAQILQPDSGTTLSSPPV", "test": "Kinase binding assay (Kd)", "description": "as §1, §2, §3, §4"}, "[21]": {"biological_target": "T20, ZAP70 (Homo sapiens, UniProt P43403)", "T20 construct": "made in house; host or cells: E. coli BL21-derived host (T7 phage) or HEK-293", "test": "Kinase binding assay (Kd)", "description": "as §1, §2, §3, §4"}, "[22]": {"biological_target": "T21, p38-alpha (Homo sapiens, UniProt Q16539)", "T21 construct": "made in house; host or cells: E. coli BL21-derived host (T7 phage) for most kinases, HEK-293 for the rest", "test": "Kinase binding assay (Kd)", "description": "as §1, §2, §3, §4"}, "[23]": {"biological_target": "T22, FGFR3(G697C) (Homo sapiens, UniProt P22607, G697C)", "T22 construct": "made in house; host or cells: E. coli BL21-derived host (T7 phage) or HEK-293", "T22 sequence (P22607 23-806 G697C)": "as the sequence (P22607 23-806) above, with G675C counted along it", "test": "Kinase binding assay (Kd), mutant FGFR3", "description": "as §1, §2, §3, §4, §5"}, "[24]": {"biological_target": "T23, FGFR3(K650E) (Homo sapiens, UniProt P22607, K650E)", "T23 construct": "made in house; host or cells: E. coli BL21-derived host (T7 phage) or HEK-293", "T23 sequence (P22607 23-806 K650E)": "as the sequence (P22607 23-806) above, with K628E counted along it", "test": "Kinase binding assay (Kd), mutant FGFR3", "description": "as §1, §2, §3, §4, §5"}, "[25]": {"biological_target": "T24, FGFR3(V555M) (Homo sapiens, UniProt P22607, V555M)", "T24 construct": "made in house; host or cells: E. coli BL21-derived host (T7 phage) or HEK-293", "T24 sequence (P22607 23-806 V555M)": "as the sequence (P22607 23-806) above, with V533M counted along it", "test": "Kinase binding assay (Kd), mutant FGFR3", "description": "as §1, §2, §3, §4, §5"}}, "note": "pKd: −log10 of the molar value. Where “and” joins values, the source holds several entries; their conditions need not be identical. Equal values may be shown once."}
{"smiles": "CCN1CCN(c2ccc(Nc3ncnc(N(C)C(=O)Nc4c(Cl)c(OC)c(Cl)c(OC)c4Cl)n3)cc2)CC1", "note": "[MPT0L145, 1-(4-((4-(4-ethylpiperazin-1-yl)phenyl)amino)-1,3,5-triazin-2-yl)-1-methyl-3-(2,4,6-trichloro-3,5-dimethoxyphenyl)urea]", "values": [{"measurement": "toxicity in normal cells (HUVEC) compared with BGJ-398", "setting": "[1]", "result": "significantly lower toxicity"}, {"measurement": "pKd", "setting": "[2]", "result": "6.57 and 6.41"}, {"measurement": "pKd", "setting": "[3]", "result": "< 5.00"}, {"measurement": "pKd", "setting": "[4]", "result": "< 5.00"}, {"measurement": "pKd", "setting": "[5]", "result": "< 5.00"}, {"measurement": "pKd", "setting": "[6]", "result": 6.47}, {"measurement": "pKd", "setting": "[7]", "result": "< 5.00"}, {"measurement": "pKd", "setting": "[8]", "result": "< 5.00"}, {"measurement": "pKd", "setting": "[9]", "result": "< 5.00"}, {"measurement": "pKd", "setting": "[10]", "result": 5.12}, {"measurement": "pKd", "setting": "[11]", "result": 5.89}, {"measurement": "pKd", "setting": "[12]", "result": "< 5.00"}, {"measurement": "pKd", "setting": "[13]", "result": "< 5.00"}, {"measurement": "pKd", "setting": "[14]", "result": "< 5.00"}, {"measurement": "pKd", "setting": "[15]", "result": "< 5.00"}, {"measurement": "pKd", "setting": "[16]", "result": "< 5.00"}, {"measurement": "pKd", "setting": "[17]", "result": "< 5.00"}, {"measurement": "pKd", "setting": "[18]", "result": "< 5.00"}, {"measurement": "pKd", "setting": "[19]", "result": "< 5.00"}, {"measurement": "pKd", "setting": "[20]", "result": 5.51}, {"measurement": "pKd", "setting": "[21]", "result": "< 5.00"}, {"measurement": "pKd", "setting": "[22]", "result": "< 5.00"}, {"measurement": "pKd", "setting": "[23]", "result": 6.41}, {"measurement": "pKd", "setting": "[24]", "result": 6.62}, {"measurement": "pKd", "setting": "[25]", "result": "< 5.00"}]}
